Inhibition data for 18 molecules are collected here from patent US8937091B2 (Japan Science and Technology Agency, priority 2009, dated 2015).

Assay [1] deals with IICR (IP3 induced calcium release) in CHO cells. Nature of the assay: Assay of IICR (IP3 induced calcium release)-inhibiting action. Particulars: Cricetulus griseus, CHO, CHO cells, 10 μM ATP, read-out: IICR level (percentage of inhibition); for inhibition at 10 µM: test compound 10 μmol; for inhibition at 30 µM: test compound 30 μmol; for inhibition at 100 µM: test compound 100 μmol. In kind it is cell-based, Chinese hamster. Put shortly:
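CHO cell medium replaced with calcium-containing BSS; compound added 1 min later, then 10 μM ATP after a further 2 min. Percent inhibition of the ATP-evoked rise in intracellular calcium determined at each compound concentration.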

In assay [2] the test system is SOCE (store operated calcium entry) in CHO cells. Nature of the assay: Assay of SOCE (store operated calcium entry)-inhibiting action. In kind it is cell-based, Chinese hamster. The conditions noted are these: Cricetulus griseus, CHO, CHO cells, thapsigargin, read-out: SOCE level (percentage of inhibition); for inhibition at 10 µM: test compound 10 μmol; for inhibition at 30 µM: test compound 30 μmol; for inhibition at 100 µM: test compound 100 μmol. The procedure, abridged:
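CHO cells in calcium-free BSS received compound, then 1 μM thapsigargin 2 min later to deplete stores; after 9 min, 2 mM calcium chloride (final) added. Percent inhibition of the rise in intracellular calcium determined at various compound concentrations.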

For `CCCCN(CCO)CCC(=O)c1cccnc1` [Example 180, 2-(N-2-hydroxyethylbutyl)aminoethyl-3-pyridylketone], in assay [1], the inhibition at 10 µM worked out at 0%, the inhibition at 30 µM is 0% and the inhibition at 100 µM is 50%. Also, in assay [2], the inhibition at 10 µM is 0%, the inhibition at 30 µM was 0% and the inhibition at 100 µM stood at 0%.
Turning to `CC(CN(CCO)C(C)C)C(=O)c1ccccc1F` (stereo not drawn) [Example 181, 1-methyl-2-(N-hydroxyethylisopropyl)aminoethyl-2-fluorophenylketone], in assay [1], the inhibition at 10 µM was determined as 0%, the inhibition at 30 µM amounted to 10% and the inhibition at 100 µM stood at 20%. In assay [2], the inhibition at 10 µM was 20%, the inhibition at 30 µM was 40% and the inhibition at 100 µM was 80%.
Regarding `CC(CN(Cc1ccccc1)C(C)C)C(=O)c1ccccc1F` (stereo not drawn) [Example 182, 1-methyl-2-(N-benzylisopropyl)aminoethyl-2-fluorophenylketone], in assay [1], the inhibition at 10 µM was 0%, the inhibition at 30 µM was determined as 0% and the inhibition at 100 µM was found to be 50%. In addition, in assay [2], the inhibition at 10 µM is 10%, the inhibition at 30 µM was 50% and the inhibition at 100 µM turned out to be 80%.
Consider `CC(C)N(CCC(=O)c1cccs1)Cc1ccccc1` [Example 183, 2-(N-isopropylbenzyl)aminoethyl-2-thiophenylketone], for which, in assay [1], the inhibition at 10 µM is 0%, the inhibition at 30 µM came to 0% and the inhibition at 100 µM was 50%. For the same molecule, in assay [2], the inhibition at 10 µM amounted to 0%, the inhibition at 30 µM worked out at 0% and the inhibition at 100 µM is 20%.
Take `O=C(CCN(CCO)Cc1ccccc1)c1ccsc1` [Example 184, 2-(N-2-hydroxyethylbenzyl)aminoethyl-3-thiophenylketone]: in assay [1], the inhibition at 10 µM stood at 30%, the inhibition at 30 µM worked out at 50% and the inhibition at 100 µM worked out at 60%. In addition, in assay [2], the inhibition at 10 µM stood at 0%, the inhibition at 30 µM worked out at 0% and the inhibition at 100 µM turned out to be 0%.
With `O=C(CCN(c1ccccc1)c1ccccc1)c1ccccn1` [Example 185, 2-(N,N-diphenyl)aminoethyl-2-pyridylketone], in assay [1], the inhibition at 10 µM came to 0%, the inhibition at 30 µM was found to be 10% and the inhibition at 100 µM came to 20%. Besides, in assay [2], the inhibition at 10 µM turned out to be 0%, the inhibition at 30 µM came to 10% and the inhibition at 100 µM was 20%.
Turning to `CCc1nccnc1C(=O)CCN(Cc1ccccc1)C(C)C` [Example 186, 2-(N-isopropylbenzyl)aminoethyl-2-(3-ethyl)-pyrazylketone], in assay [1], the inhibition at 10 µM was found to be 70%, the inhibition at 30 µM was 90% and the inhibition at 100 µM stood at 100%. Moreover, in assay [2], the inhibition at 10 µM was found to be 0%, the inhibition at 30 µM stood at 0% and the inhibition at 100 µM was 10%.
Consider `CCc1nccnc1C(=O)CCN(Cc1ccccc1)C(C)(C)C` [Example 188, 2-(N-t-butylbenzyl)aminoethyl-2-(3-ethyl)-pyrazylketone], for which, in assay [1], the inhibition at 10 µM was 50%, the inhibition at 30 µM was 90% and the inhibition at 100 µM was 100%. In assay [2], the inhibition at 10 µM amounted to 0%, the inhibition at 30 µM came to 0% and the inhibition at 100 µM was determined as 20%.
As for `O=C(CCNC12CC3CC(CC(C3)C1)C2)c1ccccc1` [Example 189, 2-N-adamantaneaminoethylphenylketone], in assay [1], the inhibition at 10 µM came out at 0%, the inhibition at 30 µM worked out at 0% and the inhibition at 100 µM is 0%. Besides, in assay [2], the inhibition at 10 µM was 0%, the inhibition at 30 µM was 10% and the inhibition at 100 µM came to 10%.
Consider `Cc1ccc(C(=O)CCNC23CC4CC(CC(C4)C2)C3)o1` [Example 190, 2-N-adamantane-aminoethyl-2-methylfurylketone], for which, in assay [1], the inhibition at 10 µM was determined as 0%, the inhibition at 30 µM stood at 10% and the inhibition at 100 µM turned out to be 50%. Moreover, in assay [2], the inhibition at 10 µM came out at 0%, the inhibition at 30 µM amounted to 10% and the inhibition at 100 µM came to 50%.
Take `CC(CNC12CC3CC(CC(C3)C1)C2)C(=O)c1ccc(F)cc1` (stereo not drawn) [Example 191]: in assay [1], the inhibition at 10 µM is 0%, the inhibition at 30 µM is 0% and the inhibition at 100 µM stood at 0%. In assay [2], the inhibition at 10 µM was found to be 0%, the inhibition at 30 µM worked out at 0% and the inhibition at 100 µM was 0%.
For `O=C(CCCCl)c1ccncc1` [Example 192, 3-chloropropyl-4-pyridylketone], in assay [1], the inhibition at 10 µM amounted to 0%, the inhibition at 30 µM was 0% and the inhibition at 100 µM came out at 0%. In addition, in assay [2], the inhibition at 10 µM came to 0%, the inhibition at 30 µM was 10% and the inhibition at 100 µM amounted to 20%.
Take `CC(C)(C)N(CCC(=O)c1cccs1)Cc1ccccc1` [Example 193, 2-(N-t-butylbenzyl)aminoethyl-2-thiophenylketone]: in assay [1], the inhibition at 10 µM worked out at 70%, the inhibition at 30 µM was found to be 95% and the inhibition at 100 µM was found to be 100%. In assay [2], the inhibition at 10 µM worked out at 0%, the inhibition at 30 µM was 0% and the inhibition at 100 µM came out at 0%.
As for `CC(C)N(CCO)CCC(=O)c1cccs1` [Example 194, 2-(N-isopropylhydroxyethyl)aminoethyl-2-thiophenylketone], in assay [1], the inhibition at 10 µM is 0%, the inhibition at 30 µM came to 0% and the inhibition at 100 µM is 0%. In assay [2], the inhibition at 10 µM turned out to be 0%, the inhibition at 30 µM was found to be 0% and the inhibition at 100 µM came out at 10%.
Turning to `CC(C)N(CC(=O)c1ccc(F)cc1)Cc1ccccc1` [Example 196, 1-(N-benzylisopropyl)aminomethyl-4-fluorophenylketone], in assay [1], the inhibition at 10 µM turned out to be 0%, the inhibition at 30 µM was 10% and the inhibition at 100 µM was determined as 30%. For the same molecule, in assay [2], the inhibition at 10 µM worked out at 0%, the inhibition at 30 µM is 20% and the inhibition at 100 µM was 40%.
In the case of `CC(=O)CCN(CCO)C(C)C` [Example 197, 2-(N-hydroxyethylisopropyl)aminoethylmethylketone], in assay [1], the inhibition at 10 µM turned out to be 0%, the inhibition at 30 µM amounted to 0% and the inhibition at 100 µM was 0%. In addition, in assay [2], the inhibition at 10 µM amounted to 0%, the inhibition at 30 µM amounted to 0% and the inhibition at 100 µM was found to be 0%.
Turning to `CC(=O)CCN(Cc1ccccc1)C(C)C` [Example 198, 2-(N-benzylisopropyl)aminoethylmethylketone], in assay [1], the inhibition at 10 µM was 0%, the inhibition at 30 µM amounted to 0% and the inhibition at 100 µM came to 0%. Moreover, in assay [2], the inhibition at 10 µM was 0%, the inhibition at 30 µM was found to be 0% and the inhibition at 100 µM worked out at 0%.
For `CC(C)N(CCO)CCC(=O)n1ccnc1` [Example 199, 2-(N-isopropylhydroxyethyl)aminoethyl-1-imidazolylketone], in assay [1], the inhibition at 10 µM was 10%, the inhibition at 30 µM came out at 20% and the inhibition at 100 µM turned out to be 0%. In addition, in assay [2], the inhibition at 10 µM was 0%, the inhibition at 30 µM came to 0% and the inhibition at 100 µM worked out at 0%.

In general, inhibition refers to how much of the control response was suppressed.
